Among the test systems are OVCAR-3 ovarian; UO-31 renal; U251 CNS; UACC-62 melanoma; SN12C renal; A549 NSCLC; LOX IMVI melanoma; T-47D breast; SK-MEL-2 melanoma; CAKI-1 renal.
Test in all cases: NCI tumour cell line growth inhibition, 48 h

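Results reflect a 48-hour exposure of cells in 96-well plates to compound at five concentrations. TGI marks complete inhibition of growth.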 Some results are limits rather than exact numbers.

On to `O=c1oc2ccc(Cl)cc2cc1-c1cn2ccccc2n1`, for which the TGI was > 100 µM with OVCAR-3 ovarian; 19.2 µM in the experiment with UO-31 renal; > 40.2 µM with U251 CNS; 38.2 µM in the experiment with UACC-62 melanoma; 36.8 µM in the experiment with SN12C renal; > 89.3 µM in the experiment on A549 NSCLC. For the same molecule, the TGI was > 100 µM in the experiment on LOX IMVI melanoma, > 100 µM with T-47D breast, > 100 µM with SK-MEL-2 melanoma and 45.9 µM in the experiment on CAKI-1 renal.
For `CN(C)c1ccc(-c2ccc(N(C)C)c3n[se]nc23)c2n[se]nc12`, the TGI in the experiment with OVCAR-3 ovarian, in the experiment on UO-31 renal, with U251 CNS, with UACC-62 melanoma, with SN12C renal and in the experiment with A549 NSCLC was > 100 µM throughout. The TGI in the experiment on LOX IMVI melanoma, in the experiment on T-47D breast, in the experiment with SK-MEL-2 melanoma and in the experiment with CAKI-1 renal was > 100 µM each time.
In the case of `CC1=CC(C)C(C)N(CCNS(=O)(=O)c2ccc(C)cc2)c2ccccc21` (stereo not given), the TGI with OVCAR-3 ovarian is 17.1 µM; in the experiment on UO-31 renal, > 31.6 µM; in the experiment with U251 CNS it was 31.7 µM; with UACC-62 melanoma it was 17.2 µM; in the experiment on SN12C renal it was 17.1 µM; with A549 NSCLC, > 31.6 µM. For the same molecule, the TGI was 17 µM in the experiment on LOX IMVI melanoma, 22.3 µM in the experiment with T-47D breast, 18 µM in the experiment on SK-MEL-2 melanoma and > 31.6 µM with CAKI-1 renal.
Regarding `O=C1NC(=O)/C(=C/c2ccc(S(=O)(=O)N/N=C\C(O)C(O)C(O)C(O)CO)cc2)N1` (stereo not given), the TGI in the experiment on OVCAR-3 ovarian, in the experiment on UO-31 renal, in the experiment on U251 CNS, in the experiment on UACC-62 melanoma, in the experiment with SN12C renal and in the experiment with A549 NSCLC was > 100 µM throughout. In addition, the TGI in the experiment on LOX IMVI melanoma, in the experiment with T-47D breast, in the experiment on SK-MEL-2 melanoma and with CAKI-1 renal was > 100 µM throughout.
For the molecule `CN(C)CCn1c(=O)c2ccc3c4c(nn3CCN(C)C)c3cc([N+](=O)[O-])ccc3n(c1=O)c24`, the TGI in the experiment on OVCAR-3 ovarian is 2.26 µM; with UO-31 renal, 0.363 µM; with U251 CNS, 2.94 µM; in the experiment with UACC-62 melanoma it was 0.952 µM; in the experiment with SN12C renal, 0.429 µM; in the experiment on A549 NSCLC it was 1.23 µM. The TGI in the experiment with LOX IMVI melanoma was determined as 1.16 µM; with T-47D breast it was 10.8 µM; in the experiment on SK-MEL-2 melanoma, 0.31 µM; in the experiment on CAKI-1 renal, 0.275 µM.
As to `O=[N+]([O-])/C(C(Cl)=C(Cl)Cl)=C(\Nc1ccccc1)n1nnc2ccccc21`, the TGI in the experiment with OVCAR-3 ovarian is > 100 µM; with UO-31 renal, 48.9 µM; in the experiment with U251 CNS, > 100 µM; in the experiment on UACC-62 melanoma, > 100 µM; with SN12C renal, > 100 µM; in the experiment on A549 NSCLC it was > 100 µM. Besides, the TGI in the experiment with LOX IMVI melanoma was 31.2 µM; in the experiment on T-47D breast it was > 100 µM; with SK-MEL-2 melanoma it was 75.2 µM; with CAKI-1 renal, > 100 µM.
For `O=C(Cc1nc2ncccc2[nH]c1=O)c1c[nH]c2ccccc12`, the TGI in the experiment with OVCAR-3 ovarian came out at 32.5 µM; with UO-31 renal, 32.5 µM; with U251 CNS, 35.1 µM; with UACC-62 melanoma, 31.2 µM; in the experiment with SN12C renal, 35.9 µM; in the experiment with A549 NSCLC, 47.8 µM. In addition, the TGI in the experiment on LOX IMVI melanoma turned out to be 44 µM; with T-47D breast it was 34.5 µM; in the experiment on SK-MEL-2 melanoma it was 30.8 µM; in the experiment on CAKI-1 renal, 31.9 µM.
For `CN(C)CC1CCCCCCCCCC(CN(C)C)C1=O` (stereo not given), the TGI in the experiment with OVCAR-3 ovarian was > 40.1 µM; with UO-31 renal, > 53.3 µM; with U251 CNS, > 54.5 µM; in the experiment on UACC-62 melanoma, > 44.1 µM; with SN12C renal, > 53.5 µM; in the experiment on A549 NSCLC, > 51.5 µM. For the same molecule, the TGI is > 37.2 µM in the experiment with LOX IMVI melanoma, 53 µM in the experiment on T-47D breast, > 67.4 µM in the experiment on SK-MEL-2 melanoma and > 50 µM in the experiment with CAKI-1 renal.
With `NC(=O)/C=c1/c2ccccc2n2nc3ccccc3c12`, the TGI was 49.1 µM with OVCAR-3 ovarian; 77 µM with UO-31 renal; 29.3 µM in the experiment on U251 CNS; 37 µM with UACC-62 melanoma; 40.2 µM in the experiment on SN12C renal; > 100 µM with A549 NSCLC. Moreover, the TGI in the experiment on LOX IMVI melanoma is 19.7 µM; with T-47D breast, > 100 µM; in the experiment on SK-MEL-2 melanoma it was 57.1 µM; in the experiment on CAKI-1 renal, 82.5 µM.
Consider `CCOC(=O)c1nc2ccccc2nc1Oc1cc(OC)c(OC)c(OC)c1`, for which the TGI in the experiment with OVCAR-3 ovarian is > 100 µM; in the experiment with UO-31 renal, > 100 µM; in the experiment with U251 CNS it was 99.4 µM; with UACC-62 melanoma, > 100 µM; in the experiment on SN12C renal, > 100 µM; in the experiment on A549 NSCLC, > 100 µM. In addition, the TGI with LOX IMVI melanoma, with T-47D breast, in the experiment on SK-MEL-2 melanoma and in the experiment with CAKI-1 renal was > 100 µM each time.
As for `Oc1cccc2cc(Br)cnc12`, the TGI with OVCAR-3 ovarian is > 26.3 µM; in the experiment with UO-31 renal, > 76.1 µM; in the experiment on U251 CNS it was > 100 µM; in the experiment with UACC-62 melanoma, 29.2 µM; with SN12C renal, > 100 µM; in the experiment on A549 NSCLC, > 100 µM. In addition, the TGI in the experiment with LOX IMVI melanoma is > 39.7 µM; in the experiment with T-47D breast, > 25.7 µM; with SK-MEL-2 melanoma it was > 100 µM; in the experiment on CAKI-1 renal it was > 100 µM.
Regarding `COC(=O)c1c[nH]c2c1-c1cc(C(=O)OCc3ccccc3)n(S(=O)(=O)c3ccc(C)cc3)c1C(=O)C2=O`, the TGI stood at 0.155 µM with OVCAR-3 ovarian; 1.38 µM with UO-31 renal; 1.13 µM in the experiment with U251 CNS; 0.363 µM with UACC-62 melanoma; 0.481 µM in the experiment on SN12C renal; 1.97 µM with A549 NSCLC. For the same molecule, the TGI in the experiment with LOX IMVI melanoma turned out to be 0.375 µM; in the experiment with T-47D breast, 2.47 µM; in the experiment with SK-MEL-2 melanoma, 0.521 µM; in the experiment with CAKI-1 renal, 2.65 µM.
As for `COC1=CC(=O)c2c(c(COP(=O)(N(C)CCBr)N(C)CCBr)cn2C)C1=O`, the TGI with OVCAR-3 ovarian came to 0.877 µM; in the experiment on UO-31 renal, 0.294 µM; with U251 CNS, 0.448 µM; in the experiment with UACC-62 melanoma, 0.272 µM; in the experiment on SN12C renal, 0.371 µM; in the experiment with A549 NSCLC, 0.659 µM. Further, the TGI in the experiment on LOX IMVI melanoma was 3.56 µM; with T-47D breast, 19 µM; in the experiment with SK-MEL-2 melanoma it was 0.315 µM; in the experiment on CAKI-1 renal it was 0.377 µM.
Take `O=C(O)CNn1c(SCC(=O)O)nnc(/C=C/c2c(O)ccc3ccccc23)c1=O`: the TGI is > 100 µM with OVCAR-3 ovarian; > 100 µM in the experiment with UO-31 renal; > 100 µM with U251 CNS; 74.4 µM in the experiment with UACC-62 melanoma; > 100 µM in the experiment on SN12C renal; > 100 µM in the experiment on A549 NSCLC. The TGI is 31.8 µM in the experiment with LOX IMVI melanoma, > 100 µM in the experiment on T-47D breast, > 100 µM in the experiment with SK-MEL-2 melanoma and > 100 µM in the experiment with CAKI-1 renal.

The values are drawn from PubChem BioAssay (NCI).
